Test results reported in article PMC6399351, “Cationic Intrinsically Disordered Antimicrobial Peptides (CIDAMPs) Represent a New Paradigm of Innate Defense with a Potential for Novel Anti-Infectives” (Scientific Reports, 2019).
Values after ≈ are worked out from the molar mass of the structure shown. Like-named read-outs stand apart in the source and are kept apart here. Square brackets hold non-standard residues; d marks the D form. Ends that are not written are not given here. Peptide text beside a SMILES is read from it. * marks the point of attachment. Palmitoyl = CCCCCCCCCCCCCCCC(=O)*; dOrn = NCCC[C@@H](N)C(=O)O; Orn = NCCC[C@H](N)C(=O)O; Dap = NC[C@H](N)C(=O)O

Tests used:
[1] = tested on: Klebsiella pneumonia ATCC 700603; details: MDR strain; CLSI, Mueller–Hinton broth, 5 × 10^5 CFU/mL, 18 h 37 °C, by CO-ADD
[2] = tested on: E. coli ATCC 25922; assay: CO-ADD MIC, broth microdilution (CLSI); format: cell-based, Escherichia coli; details: Mueller–Hinton broth, 5 × 10^5 CFU/mL, 18 h 37 °C, by CO-ADD
Source text: (§1) They were defined as the lowest peptide
(§2) Further details of the screening

[3] = tested on: Cryptococcus neoformans ATCC 208821; assay: CO-ADD MIC, antifungal assay (CLSI); format: cell-based; details: Yeast Nitrogen Base broth, 24 h 35 °C, by CO-ADD
Procedure: (§3) Fungi strains were cultured for 3 days on Yeast Extract-Peptone Dextrose (YPD) agar at 30 °C. A yeast suspension of 1 × 10^6 to 5 × 10^6 cells/mL (as determined by OD530) was prepared from five colonies. These stock suspensions were diluted with Yeast Nitrogen Base (YNB) broth to a final concentration of 2.5 × 10^3 CFU/mL. […] Plates were covered and incubated at 35 °C for 24 h without shaking.

[4] = tested on: Candida albicans ATCC 90028; assay: CO-ADD MIC, antifungal assay (CLSI); format: cell-based; details: Yeast Nitrogen Base broth, 24 h 35 °C, by CO-ADD
Procedure: as §3

[5] = tested on: Acinetobacter baumannii ATCC 19606; assay: CO-ADD MIC, broth microdilution (CLSI); format: cell-based; details: Mueller–Hinton broth, 5 × 10^5 CFU/mL, 18 h 37 °C, by CO-ADD
Source text: as §1, §2

[6] = tested on: Pseudomonas aeruginosa ATCC 27853; assay: CO-ADD MIC, broth microdilution (CLSI); format: cell-based; details: Mueller–Hinton broth, 5 × 10^5 CFU/mL, 18 h 37 °C, by CO-ADD
Source text: as §1, §2

[7] = tested on: Staphylococcus aureus ATCC 43300; details: MRSA; CLSI, Mueller–Hinton broth, 5 × 10^5 CFU/mL, 18 h 37 °C, by CO-ADD
[8] = tested on: S. aureus ATCC 6538; details: for LD90 / LD99 (concentration of peptide which kills 99.0% of inoculum) / LD100: CFU assay
[9] = tested on: P. aeruginosa ATCC 10145; details: CFU assay, 10 mM NaP, pH 5.5, 0.25% glucose
[10] = 10 mM NaP, pH 5.5, 0.25% glucose
[11] = 10 mM NaP, pH 7.0, 0.25% glucose
[12] = 10 mM NaP, pH 7.2, 0.25% glucose

Row | Molecule | Minimal inhibitory concentration (MIC) [1] [µg/mL] | Minimal inhibitory concentration (MIC) [2] [µg/mL] | Minimal inhibitory concentration (MIC) [3] [µg/mL] | Minimal inhibitory concentration (MIC) [4] [µg/mL] | Minimal inhibitory concentration (MIC) [5] [µg/mL] | Minimal inhibitory concentration (MIC) [6] [µg/mL] | Minimal inhibitory concentration (MIC) [7] [µg/mL] | LD90 [8, 10] [µg/mL] | LD99 (concentration of peptide which kills 99.0% of inoculum) [8, 10] [µg/mL] | LD90 ([8]; value in molar units) [µM] | LD90 [9] [µg/mL] | LD100 [9] [µg/mL] | LD90 [8, 11] [µg/mL] | LD100 [8, 10] [µg/mL] | LD90 [8, 12] [µg/mL] | LD100 [8, 12] [µg/mL] | LD100 [8, 11] [µg/mL] | S. aureus ATCC 6538-cidal activity ([8]; pH 7.5, at concentrations >8 µM and <0.1 µM (antibiotic paradox))
1 | CCCCCCCCCCCCCCCC(=O)NCC(=O)N[C@@H](CCCNC(=N)N)C(=O)N[C@@H](CCCNC(=N)N)C(=O)NCC(=O)NCC(=O)N[C@@H](CCCNC(=N)N)C(=O)O [Pal-GR6] (Palmitoyl-GRRGGR-OH) | >32 | >32 | 16 (≈ 17.9 µM) | >32 | >32 | >32 | 16 (≈ 17.9 µM) | 2.35 | 4.7 | – | – | – | – | – | – | – | – | –
2 | CCCCCCCCCCCCCCCC(=O)NCC(=O)N[C@@H](CCCNC(=N)N)C(=O)NCC(=O)N[C@@H](CCCNC(=N)N)C(=O)O [Pal-GR4] (Palmitoyl-GRGR-OH) | >32 | >32 | 8 (≈ 11.7 µM) | 8 (≈ 11.7 µM) | >32 | >32 | 8 (≈ 11.7 µM) | 2.35 | 4.7 | 3.4 | – | – | – | – | – | – | – | –
3 | HAHSGHGQSTQRGSRTAGR [FLG-22082-2100] | >32 | >32 | >32 | >32 | >32 | >32 | >32 | – | – | – | 0.038 | – | – | – | – | – | – | –
4 | SHHRHFRSHQCRR [LCE-3C55-67] | >32 | >32 | 8 | >32 | >32 | >32 | 32 | 2.35 | – | – | – | – | – | – | – | – | – | –
5 | N=C(N)NCCC[C@H](NC(=O)[C@H](CCCNC(=N)N)NC(=O)[C@H](CS)NC(=O)[C@H](CCCNC(=N)N)NC(=O)[C@H](Cc1c[nH]cn1)NC(=O)[C@H](CO)NC(=O)[C@H](CCCNC(=N)N)NC(=O)[C@H](CS)NC(=O)[C@H](CS)NC(=O)[C@H](CCCNC(=N)N)NC(=O)[C@H](Cc1c[nH]cn1)NC(=O)[C@H](Cc1c[nH]cn1)NC(=O)[C@@H](N)CO)C(=O)O [LCE-3B56-68] (H-SHHRCCRSHRCRR-OH) | >32 | >32 | 8 (≈ 4.72 µM) | >32 | >32 | >32 | 32 (≈ 18.9 µM) | 0.075 | – | 0.044 | – | – | – | – | – | – | – | –
6 | CCCCCCCCCCCCCCCC(=O)N[C@@H](CO)C(=O)N[C@@H](Cc1c[nH]cn1)C(=O)N[C@@H](Cc1c[nH]cn1)C(=O)N[C@@H](CCCNC(=N)N)C(=O)N[C@@H](Cc1c[nH]cn1)C(=O)N[C@@H](Cc1ccccc1)C(=O)N[C@@H](CCCNC(=N)N)C(=O)N[C@@H](CO)C(=O)N[C@@H](Cc1c[nH]cn1)C(=O)N[C@@H](CCC(N)=O)C(=O)N[C@@H](CS)C(=O)N[C@@H](CCCNC(=N)N)C(=O)N[C@@H](CCCNC(=N)N)C(=O)O [Pal-LCE-3C55-67] (Palmitoyl-SHHRHFRSHQCRR-OH) | >32 | >32 | 1 (≈ 0.504 µM) | 16 (≈ 8.07 µM) | >32 | >32 | 32 (≈ 16.1 µM) | – | – | – | – | – | – | – | – | – | – | –
7 | CCCCCCCCCCCCCCCC(=O)NCC(=O)N[C@@H](CCCN)C(=O)NCC(=O)N[C@@H](CCCN)C(=O)O [Pal-GO4] (Palmitoyl-G[Orn]G[Orn]-OH; C-terminus assumed) | – | – | – | – | – | – | – | 9.38 | – | – | 2.35 | 18.75 | – | – | – | – | – | –
8 | CCCCCCCCCCCCCCCC(=O)NCC(=O)N[C@@H](CN)C(=O)NCC(=O)N[C@@H](CN)C(=O)O [Pal-G-Dap4] (Palmitoyl-G[Dap]G[Dap]-OH) | >32 | >32 | 1 (≈ 1.84 µM) | 8 (≈ 14.7 µM) | >32 | >32 | 8 (≈ 14.7 µM) | 2.35 | – | – | – | – | – | – | – | – | – | –
9 | GRRGGRGGRGRGR [GR13] | >32 | >32 | >32 | >32 | >32 | >32 | >32 | 75 | – | – | – | – | 75 | – | – | – | – | –
10 | SRRSSSLSRSSSRSSRSSSSSR [HR 1-18,4H-4R/9G-9S] | – | – | – | – | – | – | – | 150 | – | – | 0.15 | 1.18 | – | > 300 | 75 | > 300 | – | –
11 | CCCCCCCCCCCCCCCC(=O)NCC(=O)N[C@H](CCCN)C(=O)NCC(=O)N[C@H](CCCN)C(=O)O [Pal-(D)-GO4] (Palmitoyl-G[dOrn]G[dOrn]-OH; C-terminus assumed) | – | – | – | – | – | – | – | 9.38 | – | – | 1.18 | 9.38 | – | 18.75 | – | – | – | –
12 | GRRGSGGGRSSSRGGRGSGSGR [HR 1-18,4H-4R/L-G] | – | – | – | – | – | – | – | > 300 | – | – | – | 0.15 | – | > 300 | – | – | – | –
13 | CCCCCCCCCCCCCCCC(=O)NCC(=O)N[C@@H](CCCN)C(=O)N[C@@H](CCCN)C(=O)NCC(=O)NCC(=O)N[C@@H](CCCN)C(=O)NCC(=O)NCC(=O)N[C@@H](CCCN)C(=O)NCC(=O)N[C@@H](CCCN)C(=O)NCC(=O)N[C@@H](CCCN)C(=O)O [Pal-Orn-GR13] (Palmitoyl-G[Orn][Orn]GG[Orn]GG[Orn]G[Orn]G[Orn]-OH; C-terminus assumed) | – | – | – | – | – | – | – | 0.15 | – | – | 0.075 | 0.3 | – | 18.75 | – | – | – | –
14 | CCCCCCCCCCCCCCCC(=O)N[C@@H](CCCNC(=N)N)C(=O)NCC(=O)N[C@@H](CO)C(=O)N[C@@H](CCCNC(=N)N)C(=O)N[C@@H](CO)C(=O)NCC(=O)N[C@@H](CCC(N)=O)C(=O)N[C@@H](CO)C(=O)N[C@@H](CO)C(=O)N[C@@H](CCCNC(=N)N)C(=O)NCC(=O)N[C@@H](CCC(=O)O)C(=O)N[C@@H](CCCNC(=N)N)C(=O)N[C@@H](CCCNC(=N)N)C(=O)O [Pal-HR-1-11-2H2R-14] (Palmitoyl-RGSRSGQSSRGERR-OH) | >32 | 8 (≈ 4.41 µM) | 8 (≈ 4.41 µM) | >32 | 4 (≈ 2.2 µM) | >32 | 8 (≈ 4.41 µM) | – | – | – | – | – | – | – | – | – | – | –
15 | CCCCCCCCCCCCCCCC(=O)NCC(=O)N[C@@H](Cc1c[nH]cn1)C(=O)N[C@@H](Cc1c[nH]cn1)C(=O)NCC(=O)NCC(=O)N[C@@H](Cc1c[nH]cn1)C(=O)NCC(=O)NCC(=O)N[C@@H](Cc1c[nH]cn1)C(=O)NCC(=O)N[C@@H](Cc1c[nH]cn1)C(=O)NCC(=O)N[C@@H](Cc1c[nH]cn1)C(=O)O [Pal-GH13] (Palmitoyl-GHHGGHGGHGHGH-OH; C-terminus assumed) | – | – | – | – | – | – | – | 0.3 | – | – | 0.075 | 0.3 | 0.3 | 300 | – | – | >300 | complete loss of bactericidal activity
16 | LRHGSGLGHSSSHGQHGSGSGR [HR 1-18-Leu] | – | – | – | – | – | – | – | 300 | – | – | 4.7 | – | – | > 300 | – | – | – | –
17 | CCCCCCCCCCCCCCCC(=O)NCC(=O)N[C@@H](CCCCN)C(=O)NCC(=O)N[C@@H](CCCCN)C(=O)O [Pal-GK4] (Palmitoyl-GKGK-OH; C-terminus assumed) | – | – | – | – | – | – | – | 4.7 | – | – | – | 9.375 | – | 9.375 | – | – | – | –
